# In patent publication US20030162165A1, “Chemical signal enhancement of dynamic intensity-based intracellular protein-and fluorophore-based redistribution assays for drug-screening” (priority 2003, published 2003):
# Entries after “also recorded” stand apart in the source; their conditions may differ.
# Legend:
# [1] = system: human isoform of PKC (protein kinase C) beta 1 tagged with GFP; assay: Type 1 redistribution assay (PKC beta 1-GFP, ATP stimulus) on FLIPR; type: cell-based; settings: for increase in the measurable response, type 1 redistribution: summary, enhancer added to extracellular medium, FLIPR
# Method: (§1) The CHO (Chinese hamster ovary) cell line stably expressing the human isoform of PKC (protein kinase C) beta 1 tagged with GFP (green fluorescent protein)in its C-terminal end and the human RACK1 (receptor for activated C kinase) was cultured in 96-well microtiter plates (Packard View-Plate). After 20 min preincubation in KRW (experimental buffer; A modified Krebs-Ringer buffer containing (in mM): NaCl 140, KCl 3.6, NaH2PO4 0.5, MgSO4 0.5, NaHCO3 2.0, CaCl2 1.5 and HEPES 10, D-glucose 5 (pH 7.4, titrated with 1M NaOH)) the cell plate was supplemented with a concentration gradient of Trypan Blue at 0, 10, 50, 100 and 200 μM (4 wells per compound and concentration) and placed in the FLIPR™. Subsequently the cells were stimulated in the FLIPR™ with 100 μM ATP. This gives a Type 1 redistribution response (see FIG. 6) in these cells where the redistribution can be quantified as a reduction in fluorescence intensity, as PKC beta 1 moves from the cytosol to the membrane, during the first 1-2 minutes of stimulation. […] All data were corrected for background by subtraction of a background trace based on 16 individual background traces and normalized to 1 at the point of addition of 100 μM ATP.
# as §1, with “Acid Red 88” for “Trypan Blue”
# The CHO (Chinese hamster ovary) cell line stably expressing the human isoform of PKC (protein kinase C) beta 1 tagged with GFP (green fluorescent protein) in its C-terminal end and the human RACK1 (receptor for activated C kinase) was cultured in 96-well microtiter plates (Packard View-Plate). After 20 min preincubation in KRW (experimental buffer; A modified Krebs-Ringer buffer containing (in mM): NaCl 140, KCl 3.6, NaH2PO4 0.5, MgSO4 0.5, NaHCO3 2.0, CaCl2 1.5 and HEPES 10, D-glucose 5 (pH 7.4, titrated with 1M NaOH)) the cell plate was supplemented with a concentration gradient of Trypan Blue, Acid Red 88 and Orange G at 0, 10, 50, 100 and 200 μM (4 wells per compound and concentration) and placed in the FLIPR™. Subsequently the cells were stimulated in the FLIPR™ with 100 μM ATP. This gives a Type 1 redistribution response (see FIG. 6) in these cells where the redistribution can be quantified as a reduction in fluorescence intensity, as PKC beta 1 moves from the cytosol to the membrane, during the first 1-2 minutes of stimulation. All data were corrected for background by subtraction of a background trace based on 16 individual background traces and normalized to 1 at the point of addition of 100 μM ATP. The data points represent the average of four determinations+SD. […]
# [2] = system: PH-domain (pleckstrin homology) of the human isoform of PLC (phospho-lipase C) delta tagged with GFP; assay: Type 3 redistribution assay (PLC delta PH-domain-GFP, ATP stimulus) on FLIPR; type: cell-based; settings: for increase in the measurable response, type 3 redistribution: summary, enhancer added to extracellular medium, FLIPR
# Method: The CHO (Chinese hamster ovary) cell line stably expressing the PH-domain (pleckstrin homology) of the human isoform of PLC (phospho-lipase C) delta tagged with GFP (green fluorescent protein) in its C-terminal end was cultured in 96-well microtiter plates (Packard View-Plate). After 20 min preincubation in KRW (experimental buffer; A modified Krebs-Ringer buffer containing (in mM): NaCl 140, KCl 3.6, NaH2PO4 0.5, MgSO4 0.5, NaHCO3 2.0, CaCl2 1.5 and HEPES 10, D-glucose 5 (pH 7.4, titrated with 1M NaOH)) the cell plate was supplemented with 100 μM Trypan Blue in one half and 10 μM Acid Red 88 in the other half of the wells and placed in the FLIPR™. Subsequently the cells were stimulated in the FLIPR™ with a range of ATP concentrations starting with 300 μM and lower by a threefold reduction of concentration in each dilution step. This gives a Type 3 redistribution response (see FIG. 6) in these cells where the redistribution can be quantified as an increase in fluorescence intensity, as the PH-domain of PLC delta 1 moves from the membrane to the cytosol, during the first 1-2 minutes of stimulation. FIG. 4 summarizes this experiment. All data were corrected for background by subtraction of a background trace based on 4 individual background traces. The data points represent the average of four determinations+SD. The data were extracted as the maximal change during the first minute of stimulation (Smax-Smin).
# The CHO (Chinese hamster ovary) cell line stably expressing the PH-domain (pleckstrin homology) of the human isoform of PLC (phospho-lipase C) delta tagged with GFP (green fluorescent protein) in its C-terminal end was cultured in 96-well microtiter plates (Packard View-Plate). After 20 min preincubation in KRW (experimental buffer; A modified Krebs-Ringer buffer containing (in mM): NaCl 140, KCl 3.6, NaH2PO4 0.5, MgSO4 0.5, NaHCO3 2.0, CaCl2 1.5 and HEPES 10, D-glucose 5 (pH 7.4, titrated with 1M NaOH)) the cell plate was supplemented with 100 μM Trypan Blue in one half and 20 μM Acid Red 88 in the other half of the wells and placed in the FLIPR. Subsequently the cells were stimulated in the FLIPR with 100 μM ATP. This gives a Type 3 redistribution response (see FIG. 6) in these cells where the redistribution can be quantified as an increase in fluorescence intensity, as the PH-domain of PLC delta 1 moves from the membrane to the cytosol, during the first 1-2 minutes of stimulation. FIG. 4 summarizes this experiment. It can be seen that Acid Red 88 in this case maximally gives about a 6-7-fold increase in signal over the one obtained with Trypan Blue.
# [3] = system: mouse cPKA (catalytic subunit of protein kinase A) tagged with GFP; assay: Type 2 redistribution assay (cPKA-GFP, Forskolin stimulus) on FLIPR; type: cell-based; settings: for effect on type 2 redistribution response: CHO cells, concentration gradient of dye
# Method: The CHO (Chinese hamster ovary) cell line stably expressing the mouse cPKA (catalytic subunit of protein kinase A) tagged with GFP (green fluorescent protein) in its N-terminal end was cultured in 96-well microtiter plates (Packard View-Plate). After 20 min preincubation in KRW (experimental buffer; A modified Krebs-Ringer buffer containing (in mM): NaCl 140, KCl 3.6, NaH2PO4 0.5, MgSO4 0.5, NaHCO3 2.0, CaCl2 1.5 and HEPES 10, D-glucose 5 (pH 7.4, titrated with 1M NaOH)) the cell plate was supplemented with a concentration gradient of Trypan Blue and Acid Red 88 (4 wells per compound and concentration) and placed in the FLIPR™. Subsequently the cells were stimulated in the FLIPR™ with 10 μM Forskolin. This gives a Type 2 redistribution response (see FIG. 6) in these cells where the redistribution can be quantified as an increase in fluorescence intensity, as cPKA moves from aggregates in the cytosol to a dispersed form in the cytosol, during the first 2-5 minutes of stimulation. All data were corrected for background by subtraction of a background trace based on 16 individual background traces and normalized to 1 at the point of addition of 10 μM Forskolin. The data points represent the average of four determinations+SD. The data were extracted as the maximal change in fluorescence during the first five minutes of stimulation. Negative values depict a decrease In fluorescence during the response and positive values and Increase.
# The CHO (Chinese hamster ovary) cell line stably expressing the mouse cPKA (catalytic subunit of protein kinase A) tagged with GFP (green fluorescent protein) in its N-terminal end was cultured in 96-well microtiter plates (Packard View-Plate). After 20 min preincubation in KRW (experimental buffer; A modified Krebs-Ringer buffer containing (in mM): NaCl 140, KCl 3.6, NaH2PO4 0.5, MgSO4 0.5, NaHCO3 2.0, CaCl2 1.5 and HEPES 10, D-glucose 5 (pH 7.4, titrated with 1M NaOH)) the cell plate was supplemented with a concentration gradient of Trypan Blue and Acid Red 88 at 0, 10, 50, 100 and 200 μM during the experimental fluorescence recording (4 wells per compound and concentration) in the FLIPR™. […] The data were extracted as the absolute fluorescence change 30 seconds after addition of the two compounds.
# The CHO (Chinese hamster ovary) cell line stably expressing the mouse cPKA (catalytic subunit of protein kinase A) tagged with GFP (green fluorescent protein) in its N-terminal end was cultured in 96-well microtiter plates (Packard View-Plate). […] This gives a Type 2 redistribution response (see FIG. 6) in these cells where the redistribution can be quantified as an increase in fluorescence intensity, as cPKA moves from aggregates in the cytosol to a dispersed form in the cytosol, during the first 2-5 minutes of stimulation.
# [4] = cited from earlier work; for Molar Absorptivity 488 nm: at 488 nm; for Molar Absorptivity 488 nm / Molar Absorptivity 500-550 nm: estimated from published spectra; for Molar Absorptivity 500-550 nm: average over 500-550 nm; for Wavelength of maxiumum absorbance: published spectra
# Solubility in water = type: physicochemical
Compound,"maximal enhancement of the response compared to the control ([1]; at 50 μM enhancer, CHO cells, 100 μM ATP)","effect on overall basal fluorescence, type 1 redistribution assay ([1]; concentration dependent, 0-200 μM, no stimulus (FIG. 7))","increase in the measurable response, type 1 redistribution [1]","increase in signal over the one obtained with Trypan Blue, type 3 redistribution ([2]; maximal, 20 μM Acid Red 88 vs 100 μM Trypan Blue, CHO cells, ATP)","increase in the measurable response, type 3 redistribution [2]","effect on overall basal fluorescence, type 2 redistribution assay ([3]; 0-200 μM, no stimulus (FIG. 10))",effect on type 2 redistribution response ([3]; 10 μM Forskolin),"effect on type 2 redistribution response at higher concentrations ([3]; above 10 μM, 10 μM Forskolin)",Molar Absorptivity 488 nm [4] [mol^−1-cm^−1],Molar Absorptivity 500-550 nm [4] [mol^−1-cm^−1],Wavelength of maxiumum absorbance [4] [nm],"enhancing effect on type 1 redistribution response ([1]; CHO cells, 100 μM ATP, 0-200 μM dye)","maximal enhancement of the response compared to the control ([1]; at 200 μM enhancer, CHO cells, 100 μM ATP)","effect on type 3 redistribution response ([2]; 100 μM Trypan Blue, response barely detectable without the compound)",solubility (Solubility in water) [µg/mL]
O=S(=O)([O-])c1ccc(N=Nc2c(O)ccc3ccccc23)c2ccccc12.[Na+] [Acid Red 88],about 7 fold,reduces overall basal fluorescence,6-7 fold,6-7 fold,7-10 fold,did not reduce the overall basal fluorescence,completely abolished the response at the lowest concentration,reversed it to a fluorescence decrease,16986,14964,505,–,–,–,–
O=S(=O)(O)c1cc(S(=O)(=O)O)c2c(/N=N/c3ccccc3)c(O)ccc2c1 [Orange G],–,–,–,–,–,–,–,–,13571,4524,475,enhancing properties up to a concentration of 100 μM; also recorded: inferior to Trypan Blue and much inferior to Acid Red 88,–,–,–
Cc1cc(-c2ccc(/N=N/c3c(S(=O)(=O)O)cc4cc(S(=O)(=O)O)cc(N)c4c3O)c(C)c2)ccc1/N=N/c1c(S(=O)(=O)O)cc2cc(S(=O)(=O)O)cc(N)c2c1O [Trypan Blue],–,–,2-3 fold,–,1-3 fold,–,reduced it somewhat at higher concentrations; also recorded: no enhancing effect,–,16014,34556,607,–,about 3 fold,clearly give a detectable signal,< 100
